ChEMBL document CHEMBL1149799, “Bioactive peroxides as potential therapeutic agents” (Eur J Med Chem, 2008)
Values after ≈ are worked out from the molar mass of the structure shown.

Experiments:
A549 [1] = assay: Cytotoxicity against human A549 cells; format: functional, cell-based; settings: Homo sapiens, A549; for EC50: read-out: ED50 (the source's name)
HT-29 = assay: Cytotoxicity against human HT29 cells; format: functional, cell-based; settings: Homo sapiens, HT-29
P388 [2] = assay: Cytotoxicity against mouse P388 cells; format: functional, cell-based; settings: Mus musculus, P388; for EC50: read-out: ED50 (the source's name)
DU-145 = assay: Cytotoxicity against human DU145 cells; format: functional, cell-based; settings: Homo sapiens, DU-145
[3] = Cytotoxicity against human MEL28 cells; settings: SK-MEL-28
P388 [4] = assay: Cytotoxicity against mouse P388 cells at 0.05 ug/ml; format: functional
Plasmodium falciparum = assay: Antimalarial activity against Plasmodium falciparum W2; format: functional, organism-based
A549 [5] = assay: Cytotoxicity against human A549 cells by soft agar assay; format: functional
HL-60 = assay: Cytotoxicity against human HL60 cells by soft agar assay; format: functional
KM12 = assay: Cytotoxicity against human KM12 cells by soft agar assay; format: functional
[6] = Cytotoxicity against human IGRO cells by soft agar assay; format: functional
MOLT-4 = assay: Cytotoxicity against human MOLT4 cells by soft agar assay; format: functional
786-0 = assay: Cytotoxicity against human renal 7860 cells by soft agar assay; format: functional
[7] = Cytotoxicity against human LOX cells by soft agar assay; format: functional
BT-549 = assay: Cytotoxicity against human BT549 cells by soft agar assay; format: functional
WEHI-164 = assay: Cytotoxicity against mouse WEHI164 cells; format: functional, cell-based
KB = assay: Cytotoxicity against human KB cells; format: functional, cell-based; settings: Homo sapiens; for EC50: read-out: ED50 (the source's name)
[8] = Cytotoxicity against human […] cells; format: functional; settings: read-out: ED50 (the source's name)
Candida albicans = assay: Antifungal activity against Candida albicans; format: functional
L1210 = assay: Cytotoxicity against mouse L1210 cells; format: functional, cell-based; settings: Mus musculus, L1210
LoVo = assay: Cytotoxicity against human LoVo cells; format: functional
MDA-MB-231 = assay: Cytotoxicity against human MDA-MB-231 cells; format: functional, cell-based
[9] = Cytotoxicity against human CFUGM; format: functional; settings: CFU-GM
[10] = Cytotoxicity against mouse Ehrlich Ascites carcinoma by clonogenic assay; format: functional
[11] = Cytotoxicity against mouse Ehrlich Ascites carcinoma by […] assay; format: functional

Which IC50 (A549 [1]) does the source give for `C=CCC/C=C\C=C/CCCCCCCC[C@H]1CC[C@@H]([C@@H]2CC[C@@H](CC(=O)O)OO2)O1` [STOLONOXIDE A] here?
The IC50 was 0.1 µg/mL.

And the IC50 (HT-29)?
The IC50 was 0.1 µg/mL.

And the IC50 (P388 [2])?
Its IC50 is 0.01 µg/mL (≈ 0.023 µM).

What about the IC50 (DU-145) of the same molecule?
The IC50 was 0.1 µg/mL (≈ 0.23 µM).

And the IC50 [3]?
Its IC50 is 0.1 µg/mL (≈ 0.23 µM).

With `C/C=C/C=C/CCCCCCCCC[C@]1(OC)C=C[C@H](CC(=O)OC)OO1` as the molecule, how does the inhibition at 0.05 µg/mL (P388 [4]) read?
The inhibition at 0.05 µg/mL was 50%.

Which IC50 (Plasmodium falciparum) does the source give for `CCC(=O)/C=C/[C@@]1(CC)C[C@H](CC)[C@H](CC(=O)OC)OO1` [PLAKORTOLIDE I(M)] here?
The IC50 was 0.57 µg/mL (≈ 1.91 µM).

Which GI50 (A549 [5]) does the source give for `C=C1CCCC(C)(C)C1(O)CC/C(C)=C/CC[C@]1(C)CC[C@@H]([C@@H](C)C(=O)OC)OO1` (stereo partly drawn) [MUQUBILIN B] here?
Its GI50 is over 5 µM.

What about the GI50 (HL-60) of the same molecule?
Its GI50 is over 5 µM.

What about the GI50 (KM12) of the same molecule?
The GI50 was over 5 µM.

And the GI50 [6]?
Its GI50 is 2.42 µM.

What about the GI50 (MOLT-4) of the same molecule?
Its GI50 is over 5 µM.

And the GI50 (786-0)?
The GI50 was over 5 µM.

And the GI50 [7]?
Its GI50 is over 5 µM.

Which results are given for `CC1=C(CC/C(C)=C/CC[C@@]2(C)CC[C@@H]([C@H](C)C(=O)O)OO2)C(C)(C)CCC1` [EPIMUQUBILIN A]?
GI50 (A549 [5]): > 5 µM; GI50 (HL-60): > 5 µM; GI50 (KM12): > 5 µM; GI50 [6]: > 5 µM; GI50 (MOLT-4): > 5 µM; GI50 (786-0): > 5 µM; GI50 (BT-549): > 5 µM; GI50 [7]: > 5 µM

For `CC/C=C/C(CC)C/C(C)=C/[C@]1(CC)C[C@@H](CC)[C@H](CC(=O)OC)OO1` (stereo partly drawn), which IC50 (WEHI-164) is on record?
The IC50 was 8.2 µg/mL (≈ 22.4 µM).

Which GI50 (A549 [5]) does the source give for `C=C1CCCC(C)(C)C1CC[C@]1(C)CC[C@@H]([C@@H](C)C(=O)O)OO1` (stereo partly drawn) [EPINUAPAPUIN B] here?
Its GI50 is over 5 µM.

What about the GI50 (KM12) of the same molecule?
Its GI50 is over 5 µM.

What about the GI50 [6] of the same molecule?
Its GI50 is 1.73 µM.

And the GI50 (MOLT-4)?
The GI50 was over 5 µM.

And the GI50 (786-0)?
Its GI50 is over 5 µM.

And the GI50 (BT-549)?
The GI50 was over 5 µM.

With `C=CC(C[C@@H](C)[C@H]1CC[C@H]2[C@@H]3CC=C4C[C@@H](O)CC[C@]4(C)[C@H]3CC[C@]12C)(OO)C(C)C` (stereo partly drawn) as the molecule, how does the EC50 (A549 [1]) read?
The EC50 was 7.1 µg/mL (≈ 16.5 µM).

What about the EC50 (KB; KB) of the same molecule?
Its EC50 is 1.8 µg/mL (≈ 4.18 µM).

And the EC50 [8]?
The EC50 was 5.9 µg/mL (≈ 13.7 µM).

What about the EC50 (P388 [2]) of the same molecule?
The EC50 was 0.3 µg/mL (≈ 0.697 µM).

What does the source list for `C=CCCC/C=C/C=C\CCCCCCCC[C@H]1CC[C@H]([C@@H]2CC[C@@H](CC(=O)OC)OO2)O1`?
IC50 (A549 [1]): 0.01 µg/mL; IC50 (HT-29): 0.05 µg/mL; IC50 (P388 [2]): 0.01 µg/mL (≈ 0.0216 µM); IC50 (DU-145): 0.1 µg/mL (≈ 0.216 µM); IC50 [3]: 0.1 µg/mL (≈ 0.216 µM)

Which results are given for `C=C1CCC[C@H]2[C@](C)(CC[C@]3(C)CC[C@H]([C@@H](C)C(=O)O)OO3)[C@@H](C)CC[C@]12C` [SIGMOSCEPTRELLIN A]?
GI50 [6]: 0.12 µM; GI50 (BT-549): 0.96 µM

Which MIC (Candida albicans) does the source give for `CC(CCCCCC/C=C\C=C\c1ccccc1)C[C@]1(C)C[C@](C)(CC(=O)O)OO1` (stereo partly drawn) here?
Its MIC is 1.6 µg/mL (≈ 3.86 µM).

Which inhibition at 0.05 µg/mL (P388 [4]) does the source give for `C/C=C/CCCCCCCCC[C@]1(OC)C=C[C@H](CC(=O)OC)OO1` here?
Its inhibition at 0.05 µg/mL is 50%.

Which results are given for `CC(CC/C=C/CC/C=C/c1ccccc1)C[C@]1(C)C[C@@](C)(CC(=O)O)OO1` (stereo partly drawn) [PLAKINIC ACID D]?
MIC (KB): 0.001 µg/mL (≈ 0.00259 µM); IC50 (L1210): 0.026 µg/mL (≈ 0.0673 µM); MIC (LoVo): 0.001 µg/mL (≈ 0.00259 µM)

Which results are given for `C=CCC/C=C\C=C/CCCCCCCC[C@H]1CC[C@H]([C@@H]2CC[C@@H](CC(=O)[O-])OO2)O1.[Na+]` [stolonoxide C]?
IC50 (A549 [1]): 0.1 µg/mL; IC50 (HT-29): 0.1 µg/mL; IC50 (P388 [2]): 0.5 µg/mL; IC50 (DU-145): 0.1 µg/mL; IC50 [3]: 0.5 µg/mL

With `CCCC(CC)CC(C)C[C@]1(CC)C[C@H](CC)[C@H](CC(=O)OC)OO1` (stereo partly drawn) as the molecule, how does the IC50 (A549 [1]) read?
The IC50 was 14 µM.

And the IC50 (MDA-MB-231)?
Its IC50 is 24.4 µM.

And the IC50 (HT-29)?
The IC50 was 12.3 µM.

Which MIC (KB) does the source give for `COC(=O)C[C@]1(C)C[C@@](C)(CC(C)CCCC/C=C/CC/C=C\c2ccccc2)OO1` (stereo partly drawn) here?
The MIC was 1 µg/mL (≈ 2.33 µM).

And the IC50 (L1210)?
Its IC50 is 0.013 µg/mL (≈ 0.0303 µM).

What about the MIC (LoVo) of the same molecule?
The MIC was 1 µg/mL (≈ 2.33 µM).

Which results are given for `C=C1CCCC(C)(C)C1(O)CC/C(C)=C/CC[C@]1(C)CC[C@H]([C@@H](C)C(=O)OC)OO1` (stereo partly drawn) [EPIMUQUBILIN B]?
GI50 (A549 [5]): > 5 µM; GI50 (HL-60): > 5 µM; GI50 (KM12): > 5 µM; GI50 [6]: > 5 µM; GI50 (MOLT-4): > 5 µM; GI50 (786-0): > 5 µM; GI50 (BT-549): > 5 µM

With `C=C1C(=O)O[C@@H]2O[C@@]3(C)CC[C@H]4[C@H](C)CC[C@@H]1[C@@]24OO3` as the molecule, how does the IC50 [9] read?
The IC50 was 1.7 µM.

What about the IC50 [10] of the same molecule?
The IC50 was 10 µM.

And the IC50 [11]?
Its IC50 is 11.3 µM.

With `CCCCC(CC)CC(C)C[C@]1(CC)C[C@H](CC)[C@H](CC(=O)O)OO1` (stereo partly drawn) [PLAKORITIDE Q] as the molecule, how does the IC50 (A549 [1]) read?
The IC50 was 3.6 µM.

What about the IC50 (MDA-MB-231) of the same molecule?
Its IC50 is 9 µM.

What about the IC50 (HT-29) of the same molecule?
The IC50 was 3.9 µM.

For `CCCCCCCCCCCCCCC[C@@]1(OC)C=C[C@H](CC(=O)OC)OO1` [PLAKORIN], which IC50 (KB; KB) is on record?
The IC50 was 1.8 µg/mL (≈ 4.52 µM).

What about the IC50 (L1210) of the same molecule?
The IC50 was 0.85 µg/mL (≈ 2.13 µM).

What about the inhibition at 0.05 µg/mL (P388 [4]) of the same molecule?
The inhibition at 0.05 µg/mL was 50%.

Which results are given for `CC/C=C/C(CC)CC(C)C[C@]1(CC)C[C@H](CC)[C@H](CC(=O)OC)OO1` (stereo partly drawn)?
IC50 (A549 [1]): 6.8 µM; IC50 (MDA-MB-231): 4.1 µM; IC50 (HT-29): 12.8 µM

For `C=C(C)[C@@H](CC)CC[C@@H](C)[C@H]1CC[C@@H]2[C@@H]1CC[C@H]1[C@H]2[C@@H](OO)C=C2C[C@@H](O)CC[C@@]21C`, which EC50 (A549 [1]) is on record?
The EC50 was 0.5 µg/mL (≈ 1.16 µM).

What about the EC50 (KB; KB) of the same molecule?
The EC50 was 1 µg/mL (≈ 2.32 µM).

What about the EC50 [8] of the same molecule?
The EC50 was 1 µg/mL (≈ 2.32 µM).

And the EC50 (P388 [2])?
Its EC50 is 0.4 µg/mL (≈ 0.929 µM).

With `C/C=C/C=C/CCCCCCC[C@]1(OC)C=C[C@H](CC(=O)OC)OO1` as the molecule, how does the inhibition at 0.05 µg/mL (P388 [4]) read?
Its inhibition at 0.05 µg/mL is 50%.

Which MIC (KB) does the source give for `COC(=O)C[C@]1(C)C[C@@](C)(CC(C)CC/C=C/CC/C=C/c2ccccc2)OO1` (stereo partly drawn) here?
The MIC was 1 µg/mL (≈ 2.5 µM).

What about the IC50 (L1210) of the same molecule?
The IC50 was 0.0043 µg/mL (≈ 0.0107 µM).

What about the MIC (LoVo) of the same molecule?
The MIC was 0.1 µg/mL (≈ 0.25 µM).
